Data as given in patent publication US6214834A, “Integrin inhibitor prodrugs” (Dupont Pharmaceuticals Company, priority 1998, dated 2001).
Several values for one entry are separate records, joined by “and”; a condition that tells them apart may be missing. Equal entries are not always repeated. Where two headings read alike, the source gives them in different places.

What was measured:
[1] = Free solution electrophoretic mobility by capillary electrophoresis; assay type: physicochemical; settings: for Electrophoretic Mobility: 400 V/cm, 25° C.
Protocol: To obtain a preliminary indication of the feasibility of transdermal iontophoretic delivery and the possible dependence on pH, the solution mobilities of the methyl and choline esters were evaluated using capillary electrophoresis. Free solution mobilities were determined using a capillary electrophoresis instrument equipped with a u.v. detector and a cationic amine capillary column of 57 cm total length, 50 cm length to detector, 370 μm o.d.,50 μm i.d. Buffers used were pH 4.5 acetate, pH 6.0 MES and pH 8.0 TRIS. All buffer concentrations were 50 mM. Elution was at 400 V/cm and 25° C., and detection was at 214 nm. Compounds SM192 and SD209 were examined. Structures are given in Scheme 16. For each compound, 2 mg/mL stock solutions were prepared and diluted 1:1 with the running buffer. Therefore, electrophoretic mobility of compound SD209 is about two-fold higher than that of compound SM192 at all pH values examined.

[2] = Surface tension measurements (DuNouy tensiometer); assay type: physicochemical; settings: for Surface Tension: pH ~4, 22° C.
Protocol: Surface activity behavior of the two prodrugs, SM192 and SD209 was examined using tensiometry. Stock solutions of each were prepared at a concentration of 0.06 M in water and dilutions were made using an aqueous solution of the corresponding salt counterion of the prodrug adjusted to a pH ~4. Surface tension measurements were run at 22° C. on a DuNouy tensiometer. Three measurements were run on each solution concentration.

[3] = Partition coefficient estimated by HPLC method; assay type: physicochemical; settings: estimated using an HPLC method; read-out: HPLC Log P
[4] = Plasma concentrations after i.v. bolus of SD209 in pigs (in vivo conversion of prodrug); design: species or system Yorkshire domestic swine
Protocol: Data indicating conversion of the prodrug SD209 to the drug, SM256 once administered into circulation in vivo is represented in Table 5. The data in Table 5 id generated from intravenous administration of the prodrug, SD209, in pigs.
SD209 was injected intravenously at a dose of 0.5 mg/kg and plasma was seperated after blood sampling at different intervals. Following solid phase extraction of the plasma, residues were chromatographed on a supelcosil ABZ HPLC column and detected by positive ion electrospray MS/MS using a Sciex API 300. This combination provides a specific assay for both SD209 and SM256. The linear range of the assay for SM256 was from 1 ng/ml to 2000 ng/ml. Plasma concentration data for both pigs are provided below

[5] = pig 1, Time 10.0 hr, i.v. bolus 0.5 mg/kg of SD209
[6] = pig 1, Time 14.0 hr, i.v. bolus 0.5 mg/kg of SD209
[7] = pig 1, Time 24.0 hr, i.v. bolus 0.5 mg/kg of SD209
[8] = pig 2, Time 7.0 hr, i.v. bolus 0.5 mg/kg of SD209
[9] = pig 2, Time 10.0 hr, i.v. bolus 0.5 mg/kg of SD209
[10] = pig 2, Time 14.0 hr, i.v. bolus 0.5 mg/kg of SD209
[11] = pig 2, Time 24.0 hr, i.v. bolus 0.5 mg/kg of SD209

Row | Compound | Electrophoretic Mobility ([1]; pH 4.5 acetate buffer 50 mM) | Electrophoretic Mobility ([1]; pH 6.0 MES buffer 50 mM) | Electrophoretic Mobility ([1]; pH 8.0 TRIS buffer 50 mM) | Surface Tension ([2]; Concentration 0.0015 M) [dynes/cm] | Surface Tension ([2]; Concentration 0.003 M) [dynes/cm] | Surface Tension ([2]; Concentration 0.010 M) [dynes/cm] | Surface Tension ([2]; Concentration 0.015 M) [dynes/cm] | Surface Tension ([2]; Concentration 0.030 M) [dynes/cm] | Surface Tension ([2]; Concentration 0.045 M) [dynes/cm] | Surface Tension ([2]; Concentration 0.054 M) [dynes/cm] | Surface Tension ([2]; Concentration 0.06 M) [dynes/cm] | chromatographic logP [3] | plasma conc. [4, 5] | plasma conc. [4, 6] | plasma conc. [4, 7] | plasma conc. [4, 8] | plasma conc. [4, 9] | plasma conc. [4, 10] | plasma conc. [4, 11] | further results
1 | COC(=O)C(CNC(=O)c1ccc2c(cnn2CCCNc2ncc[nH]2)c1)NS(=O)(=O)c1c(C)cc(C)cc1C (centres unmarked) [SM192] | 1.7 (cm^2 /v/sec) × 10^-4 | 1.6 (cm^2 /v/sec) × 10^-4 | 1.1 (cm^2 /v/sec) × 10^-4 | 69.1 ± 0.6 | 61.7 ± 0.2 | 53.5 ± 0.3 | 51.5 ± 0.1 | 50.4 ± 0.2 | 49.8 ± 0.4 | 50.0 ± 0.6 | 49.5 ± 0.3 | 3.73 |  |  |  |  |  |  |  | Surface Tension ([2]; Concentration 0.00015 M): 73.0 ± 0.2 dynes/cm; Surface Tension ([2]; Concentration 0.0003 M): 73.0 ± 0.2 dynes/cm; Surface Tension ([2]; Concentration 0.0006 M): 72.3 ± 0.1 dynes/cm; Surface Tension ([2]; Concentration 0.001 M): 69.3 ± 0.6 dynes/cm; Surface Tension ([2]; Concentration 0.006 M): 56.9 ± 0.4 dynes/cm; critical micelle concentration (CMC) ([2]; from surface tension vs concentration): ~ 16 mM and ~ 11 mg/mL
2 | Cc1cc(C)c(S(=O)(=O)NC(CNC(=O)c2ccc3c(cnn3CCCNc3ncc[nH]3)c2)C(=O)O)c(C)c1 (centres unmarked) [SM256] |  |  |  |  |  |  |  |  |  |  |  |  | BQL | BQL | BQL | BQL | BQL | BQL | BQL | 
3 | Cc1cc(C)c(S(=O)(=O)NC(CNC(=O)c2ccc3c(cnn3CCCNc3ncc[nH]3)c2)C(=O)OCC[N+](C)(C)C)c(C)c1 (centres unmarked) [SD209] | 3.2 (cm^2 /v/sec) × 10^-4 | 3.0 (cm^2 /v/sec) × 10^-4 | 2.3 (cm^2 /v/sec) × 10^-4 | 72.6 ± 0.06 | 72.4 ± 0.06 | 72.2 ± 0.2 | 67.4 ± 0.6 | 65.5 ± 0.5 | 61.9 ± 0.4 | 63.7 ± 0.4 | 61.2 ± 0.3 | 0.95 | BQL | BQL | BQL | BQL | BQL | BQL | BQL | electrophoretic mobility relative to compound SM192 ([1]; higher than SM192 at all pH values examined): about two-fold; critical micelle concentration (not attained up to) ([2]; no CMC attained even at the highest concentrations): > 0.6 M; plasma conc. ([4]; pig 1, Time 1.0 hr, i.v. bolus 0.5 mg/kg of SD209): BQL; plasma conc. ([4]; pig 1, Time 3.0 hr, i.v. bolus 0.5 mg/kg of SD209): BQL; plasma conc. ([4]; pig 1, Time 5.0 hr, i.v. bolus 0.5 mg/kg of SD209): BQL; plasma conc. ([4]; pig 1, Time 7.0 hr, i.v. bolus 0.5 mg/kg of SD209): BQL; plasma conc. ([4]; pig 2, Time 1.0 hr, i.v. bolus 0.5 mg/kg of SD209): BQL; plasma conc. ([4]; pig 2, Time 2.0 hr, i.v. bolus 0.5 mg/kg of SD209): BQL; plasma conc. ([4]; pig 2, Time 3.0 hr, i.v. bolus 0.5 mg/kg of SD209): BQL; plasma conc. ([4]; pig 2, Time 5.0 hr, i.v. bolus 0.5 mg/kg of SD209): BQL; concentration at 0 h ([4]; pig, plasma, iv, 0.5 mg/kg, pig 1, Time 0.00 hr, i.v. bolus 0.5 mg/kg of SD209, read-out: plasma conc.): < 2 ng/mL; concentration at 0.1 h ([4]; pig, plasma, iv, 0.5 mg/kg, pig 1, Time 0.1 hr, i.v. bolus 0.5 mg/kg of SD209, read-out: plasma conc.): 60 ng/mL; concentration at 0.25 h ([4]; pig, plasma, iv, 0.5 mg/kg, pig 1, Time 0.25 hr, i.v. bolus 0.5 mg/kg of SD209, read-out: plasma conc.): 20 ng/mL; concentration at 0 h ([4]; pig, plasma, iv, 0.5 mg/kg, pig 2, Time 0.00 hr, i.v. bolus 0.5 mg/kg of SD209, read-out: plasma conc.): < 2 ng/mL; concentration at 0.1 h ([4]; pig, plasma, iv, 0.5 mg/kg, pig 2, Time 0.1 hr, i.v. bolus 0.5 mg/kg of SD209, read-out: plasma conc.): 20 ng/mL; concentration at 0.25 h ([4]; pig, plasma, iv, 0.5 mg/kg, pig 2, Time 0.25 hr, i.v. bolus 0.5 mg/kg of SD209, read-out: plasma conc.): 3 ng/mL; concentration at 0.5 h ([4]; pig, plasma, iv, 0.5 mg/kg, pig 2, Time 0.5 hr, i.v. bolus 0.5 mg/kg of SD209, read-out: plasma conc.): < 2 ng/mL; in vivo conversion of prodrug to SM256 in the circulation ([4]; pigs, i.v. 0.5 mg/kg): quantitatively converted to SM256
